Assay results taken from PMC12648652, “Combining AlphaFold with Focused Virtual Library Design in the Development of Novel CCR2 and CCR5 Antagonists” (Journal of Chemical Information and Modeling, 2025).
pKi: −log10 of the molar value.

Biological target: CC chemokine receptor 2 (CCR2) (Homo sapiens, UniProt P41597)
Sequence (P41597 whole entry): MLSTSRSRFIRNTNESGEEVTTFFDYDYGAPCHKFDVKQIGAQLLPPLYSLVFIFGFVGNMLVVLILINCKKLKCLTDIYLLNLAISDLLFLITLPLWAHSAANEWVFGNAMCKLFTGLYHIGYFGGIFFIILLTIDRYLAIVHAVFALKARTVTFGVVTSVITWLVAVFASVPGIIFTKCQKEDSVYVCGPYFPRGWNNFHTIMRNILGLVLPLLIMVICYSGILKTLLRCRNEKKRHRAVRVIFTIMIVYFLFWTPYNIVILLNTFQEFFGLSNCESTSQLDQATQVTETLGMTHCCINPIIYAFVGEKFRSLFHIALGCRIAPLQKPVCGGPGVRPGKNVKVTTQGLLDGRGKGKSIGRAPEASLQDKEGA

pKi | Compound
5.49 | COc1ccc(S(=O)(=O)Nc2cncc(N3CCOCC3)n2)cc1 [compound 13, LUF8070]
5.23 | O=S(=O)(Nc1cncc(N2CCCCC2)n1)c1ccc(Cl)c(C(F)(F)F)c1 [compound 20, LUF8100]
5.88 | O=S(=O)(Nc1cncc(N2CCOCC2)n1)c1ccc(Cl)c(Cl)c1 [compound 17, LUF8075]
